{"source": "patent US20060094003A1", "about": "“Acetylcholine-dependent current as a novel ionic target for atrial fibrillation” (priority 2004, published 2006)", "key": {"Kir 3.1/3.4 currents": {"target": "T1, Kir 3.1/3.4 currents (Homo sapiens, UniProt P48544+P48549)", "T1 sequence (P48549 1-501)": "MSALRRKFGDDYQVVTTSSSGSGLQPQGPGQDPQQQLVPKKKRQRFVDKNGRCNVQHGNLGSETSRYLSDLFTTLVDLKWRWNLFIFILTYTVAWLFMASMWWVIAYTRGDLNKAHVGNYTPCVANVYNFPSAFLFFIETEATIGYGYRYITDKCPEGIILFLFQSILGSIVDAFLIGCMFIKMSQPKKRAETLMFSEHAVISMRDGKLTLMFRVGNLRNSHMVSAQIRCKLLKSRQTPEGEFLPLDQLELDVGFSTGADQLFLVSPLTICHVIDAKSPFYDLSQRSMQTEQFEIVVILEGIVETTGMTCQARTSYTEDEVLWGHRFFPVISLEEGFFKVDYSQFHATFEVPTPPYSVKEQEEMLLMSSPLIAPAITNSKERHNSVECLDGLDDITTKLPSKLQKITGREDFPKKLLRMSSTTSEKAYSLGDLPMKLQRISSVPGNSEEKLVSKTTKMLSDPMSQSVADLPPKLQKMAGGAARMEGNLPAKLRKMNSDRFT", "T1 sequence (P48544 1-419)": "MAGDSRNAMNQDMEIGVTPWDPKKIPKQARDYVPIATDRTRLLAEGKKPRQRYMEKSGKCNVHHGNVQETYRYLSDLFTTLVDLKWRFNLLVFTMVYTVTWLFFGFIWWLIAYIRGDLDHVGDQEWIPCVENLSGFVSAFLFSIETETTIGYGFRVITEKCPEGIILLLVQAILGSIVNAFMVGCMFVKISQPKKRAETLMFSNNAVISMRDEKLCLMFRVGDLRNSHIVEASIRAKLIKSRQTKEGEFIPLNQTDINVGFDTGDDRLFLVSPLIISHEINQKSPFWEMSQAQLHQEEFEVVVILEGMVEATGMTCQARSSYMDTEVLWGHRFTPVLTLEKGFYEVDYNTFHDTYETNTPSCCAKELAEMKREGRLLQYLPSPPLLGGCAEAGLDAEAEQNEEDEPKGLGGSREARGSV", "conditions": "Jin & Lu, 1999; cited from earlier work"}, "[1]": {"test_system": "multicellular canine atrial preparations", "assay": "Action potential recording with standard microelectrodes in multicellular canine atrial preparations (LA and PV)", "conditions": "for APD90 / APD25 / APD50: after tertiapin-Q (200 nM per table title); for APD90: atropine present, 2 Hz", "method": "Adult mongrel dogs of either sex (weighing about 20-35 kg) were anaesthetized with pentobarbital (30 mg kg^−1 I.V.) and artificially ventilated with room air. Hearts and adjacent lung tissue were relatively quickly excised through a left lateral thoracotomy and immersed in oxygenated Tyrode solution (composition detailed hereinbelow) at room temperature. Removal of the heart and lungs produced circulatory arrest, resulting in relatively effective and relatively humane killing. A left atrial (LA) preparation with the PVs intact was perfused via the left circumflex coronary artery, and subjected to either standard fine-tipped microelectrode recording of action potentials (APs) or cardiomyocyte isolation with collagenase-containing solutions, as previously described (Ehrlich et al. 2003). Six dogs were subjected to atrial tachycardia-induced remodeling induced by 1 week of atrial pacing at about 400 beats min^−1 after ablation of the AV node, as described in Li et al. 1999. Animal care and handling procedures followed the guidelines of the Canadian Council on Animal Care.\nTo isolate LA and PV cardiomyocytes, the proximal circumflex artery was cannulated and the distal ends of PV myocardial sleeves (approximately 1-1.5 cm from the PV-LA junction) were marked with silk thread prior to subsequent enzyme perfusion with collagenase (100 U ml^−1, Worthington, type II), in order to facilitate localization of PV sleeves after enzymatic digestion. […] With this method, PVs were relatively well-perfused and single cardiomyocytes could be isolated from all veins. Cardiomyocytes obtained from PVs were morphologically similar to LA cardiomyocytes isolated from the LA free wall in the same dogs. All comparisons were based on PV and LA cardiomyocytes isolated from each dog on each experimental day. After isolation, cells were stored at 4° C. and studied on the same day. For standard microelectrode experiments, intact tissue preparations including the LA and adjacent PVs were mounted in a chamber and perfused via the circumflex artery with oxygenated Krebs solution at 36±0.5° C. (see for example Kneller et al. 2002).\nFine-tipped microelectrodes (resistance 15-20 M when filled with 3 M KCl) coupled to a high input-impedance amplifier were used to record APs as described in Kneller et al. 2002.\nTyrode solution contained (mM): NaCl 136, KCl 5.4, MgCl2 1, CaCl2 1, NaH2PO4 0.33, Hepes 5 and dextrose 10 (pH 7.35 with NaOH). The cell-storage solution contained (mM): KCl 20, KH2PO4 10, dextrose 10, mannitol 40, L-glutamic acid 70, β-OH-butyric acid 10, taurine 20, EGTA 10 and 0.1% bovine serum albumin (pH 7.3, KOH). Nifedipine (5 μM) was used to suppress L-type Ca^2+ current (ICa) in all experiments. 4-Aminopyridine (4-AP, 2 mM) was added to suppress transient outward current (Ito). […] Na+ current (INa) contamination was avoided by using a HP of −40 mV for recording of hyperpolarization-induced currents and by substitution of equimolar Tris-HCl for external NaCl for tail-current recordings. When different external K^+ concentrations were applied, the osmolarity was kept constant by proportionate reduction of NaCl content in the solution. The standard internal solution contained (mM): potassium aspartate 110, KCl 20, MgCl2 1, MgATP 5, GTP (lithium salt) 0.1, Hepes 10, sodium phosphocreatine 5 and EGTA 5.0 (pH 7.3 with KOH). In experiments with K+-free internal solution, potassium aspartate was replaced by equimolar caesium aspartate and KCl by CsCl and pH was set to 7.3 with CsOH. For standard-microelectrode experiments, a solution containing (mM): NaCl 120, KCl 4, KH2PO4 1.2, MgSO4 1.2, NaHCO3 25, CaCl2 1.25 and dextrose 5 (95% O2-5% CO2, pH 7.4) was used to perfuse the tissue.\nFIGS. 5E and F show representative APs before and after 100 nM tertiapin-Q in LA and PV."}}, "data": [{"substance": "tertiapin-Q", "values": [{"measurement": "IC50", "setting": "Kir 3.1/3.4 currents", "value": 8, "unit": "nM"}, {"measurement": "effect on AP duration in LA and PV (in words)", "setting": "[1]; 100 nM tertiapin-Q, 200 nM atropine", "value": "significantly prolonged"}, {"measurement": "APD90", "setting": "[1]; LA, control 202.6 ± 2.6", "value": "242.7 ± 6.2", "unit": "ms"}, {"measurement": "APD25", "setting": "[1]; LA, control 78.1 ± 2.8", "value": "84.7 ± 4.0", "unit": "ms"}, {"measurement": "APD50", "setting": "[1]; LA, control 130.2 ± 4.0", "value": "146.8 ± 3.2", "unit": "ms"}, {"measurement": "APD90", "setting": "[1]; PV, control 190.4 ± 4.3", "value": "234.2 ± 9.9", "unit": "ms"}, {"measurement": "APD25", "setting": "[1]; PV, control 71.3 ± 3.4", "value": "86.1 ± 5.0", "unit": "ms"}, {"measurement": "APD50", "setting": "[1]; PV, control 104.0 ± 3.8", "value": "126.8 ± 6.9", "unit": "ms"}]}]}
